According to patent US6858591B2, “Antibiotic AA 896 analogs” (Wyeth Holdings Corporation, priority 2001, dated 2005):
Values after ≈ are worked out from the molar mass of the structure shown. Where two headings read alike, the source gives them in different places.

Legend:
Test in all cases: In vitro MIC, broth dilution
Assay type in all cases: cell-based
[1] = system: E. coli GC 4559; settings: Escherichia coli, GC4559
[2] = system: P. aeruginosa GC 2214; settings: Pseudomonas aeruginosa, GC2214
[3] = system: M. morganii GC 4531; settings: Morganella morganii, GC4531
[4] = system: S. aureus GC 1131; settings: Staphylococcus aureus, GC1131
Experimental: (§1) The minimum inhibitory concentration (MIC), the lowest concentration of the antibiotic which inhibits growth of the test organism, is determined by the broth dilution method using Muller-Hinton II […] (Baltimore Biological Laboratories) following the recommendations of National Committee for Clinical Laboratory Standards. [Reference for the Methods for dilution antimicrobial susceptibility tests for bacteria that grow aerobically: National Committee for Clinical Laboratory Standards, 1997. Approved standard M7-A National Committee for Clinical Laboratory Standards, Wayne, Pa.] An inoculum level of 5×10^5 CFU/ml, and a range of antibiotic concentrations (64-0.06 μg/ml) is used. The MIC is determined after the microtiter plates are incubated for 18 hours at 35° C. in an ambient air incubator. The test organisms comprise a spectrum of gram-positive bacteria including Staphylococcus sp., Streptococcus sp. and Enterococcus sp. These organisms include recent clinical isolates that are resistant to methicillin, penicillin and vancomycin.

[5] = system: E. faecalis GC 2242; settings: Enterococcus faecalis, GC2242
Experimental: as §1

[6] = system: E. faecalis GC 4555; settings: Enterococcus faecalis, GC4555
Experimental: as §1

[7] = system: CNS GC 4538
Experimental: as §1

[8] = system: CNS GC 4537
Experimental: as §1

[9] = system: S. aureus GC 4536; settings: Staphylococcus aureus, GC4536
Experimental: as §1

[10] = system: CNS GC 4547
Experimental: as §1

[11] = system: S. aureus GC 2216; settings: Staphylococcus aureus, GC2216
Experimental: as §1

[12] = system: E. faecalis GC 842; settings: Enterococcus faecalis, GC842
Experimental: as §1

[13] = system: E. coli GC 3226; settings: Escherichia coli, GC3226
[14] = system: E. cloacae GC 3783; settings: Enterobacter cloacae, GC3783
[15] = system: C. albicans GC 3066; settings: Candida albicans, GC3066
[16] = system: K. pneumoniae GC 4534; settings: Klebsiella pneumoniae, GC4534
[17] = system: E. coli GC 2203; settings: Escherichia coli, GC2203
[18] = system: E. coli GC 4560; settings: Escherichia coli, GC4560
[19] = system: P. aeruginosa GC 4532; settings: Pseudomonas aeruginosa, GC4532
[20] = system: S. marcescens GC 4077; settings: Serratia marcescens, GC4077

For `COc1ccc(Cn2c(=O)ccn([C@@H]3OC([C@H](O)[C@H](NCCCNC(=O)[C@@H](NC(=O)OCc4ccccc4)[C@H](C)O)C(=O)OC(C)(C)C)[C@@H](O[Si](C)(C)C(C)(C)C)[C@H]3O[Si](C)(C)C(C)(C)C)c2=O)cc1` (stereo partly drawn) [Example 10, tert-Butyl (5S,12S)-12-[(R)-[(3R,4R,5R)-3,4-bis{[tert-butyl(dimethyl)silyl]oxy}-5-(3-(4-methoxybenzyl)-2,4-dioxo-3,4-dihydro-1(2H)-pyrimidinyl)tetrahydro-2-furanyl](hydroxy)methyl]-5-[(1S)-1-hydroxyethyl]-3,6-dioxo-1-phenyl-2-oxa-4,7,11-triazatridecan-13-oate], the MIC [1] was over 128 µg/mL, the MIC [2] was over 128 µg/mL and the MIC [3] was over 128 µg/mL. It also gave an MIC [4] of over 128 µg/mL, an MIC [5] of 128 µg/mL (≈ 126 µM) and an MIC [6] of over 128 µg/mL. The MIC [7] was over 128 µg/mL, the MIC [8] was over 128 µg/mL and the MIC [9] was over 128 µg/mL. It also gave an MIC [10] of over 128 µg/mL, an MIC [11] of over 128 µg/mL and an MIC [12] of over 128 µg/mL. The MIC [13] was over 128 µg/mL, the MIC [14] was over 128 µg/mL and the MIC [15] was 128 µg/mL (≈ 126 µM). It also gave an MIC [16] of over 128 µg/mL, an MIC [17] of over 128 µg/mL and an MIC [18] of over 128 µg/mL. For the same compound, the MIC [19] was over 128 µg/mL and the MIC [20] was over 128 µg/mL.
`COc1ccc(Cn2c(=O)ccn([C@@H]3OC([C@H](O)[C@H](NCCCNC(=O)[C@@H](N)[C@H](C)O)C(=O)OC(C)(C)C)[C@@H](O[Si](C)(C)C(C)(C)C)[C@H]3O[Si](C)(C)C(C)(C)C)c2=O)cc1` (stereo partly drawn) [Example 11, tert-Butyl (2S,3R)-2-[(3-{[(2S,3S)-2-amino-3-hydroxybutanoyl]amino}propyl)amino]-3-[(3R,4R,5R)-3,4-bis{[tert-butyl(dimethyl)silyl]oxy}-5-(3-(4-methoxybenzyl)-2,4-dioxo-3,4-dihydro-1(2H)-pyrimidinyl)tetrahydro-2-furanyl]-3-hydroxypropanoate] was tested, and the MIC ([1]; E. coli GC 4559, read-out: MIC) was over 128 µg/mL, the MIC ([2]; P. aeruginosa GC 2214, read-out: MIC) was 128 µg/mL (≈ 145 µM) and the MIC ([3]; M. morganii GC 4531, read-out: MIC) was over 128 µg/mL. For the same compound, the MIC ([4]; S. aureus GC 1131, read-out: MIC) was 8 µg/mL (≈ 9.09 µM), the MIC ([5]; E. faecalis GC 2242, read-out: MIC) was 8 µg/mL (≈ 9.09 µM) and the MIC ([6]; E. faecalis GC 4555, read-out: MIC) was 4 µg/mL (≈ 4.54 µM). For the same compound, the MIC ([7]; CNS GC 4538, read-out: MIC) was 4 µg/mL (≈ 4.54 µM), the MIC ([8]; CNS GC 4537, read-out: MIC) was 4 µg/mL (≈ 4.54 µM) and the MIC ([9]; S. aureus GC 4536, read-out: MIC) was 4 µg/mL (≈ 4.54 µM). The MIC ([10]; CNS GC 4547, read-out: MIC) was 8 µg/mL (≈ 9.09 µM), the MIC ([11]; S. aureus GC 2216, read-out: MIC) was 4 µg/mL (≈ 4.54 µM) and the MIC ([12]; E. faecalis GC 842, read-out: MIC) was 4 µg/mL (≈ 4.54 µM). It also gave an MIC ([13]; E. coli GC 3226, read-out: MIC) of over 128 µg/mL, an MIC ([14]; E. cloacae GC 3783, read-out: MIC) of over 128 µg/mL and an MIC ([15]; C. albicans GC 3066, read-out: MIC) of over 128 µg/mL. For the same compound, the MIC ([16]; K. pneumoniae GC 4534, read-out: MIC) was over 128 µg/mL, the MIC ([17]; E. coli GC 2203, read-out: MIC) was over 128 µg/mL and the MIC ([18]; E. coli GC 4560, read-out: MIC) was over 128 µg/mL. For the same compound, the MIC ([19]; P. aeruginosa GC 4532, read-out: MIC) was over 128 µg/mL and the MIC ([20]; S. marcescens GC 4077, read-out: MIC) was over 128 µg/mL.
`COc1ccc(Cn2c(=O)ccn([C@@H]3OC([C@H](O)[C@H](NCCCNC(=O)[C@H](Cc4ccccc4)NC(=O)OCc4ccccc4)C(=O)OC(C)(C)C)[C@@H](O[Si](C)(C)C(C)(C)C)[C@H]3O[Si](C)(C)C(C)(C)C)c2=O)cc1` (stereo partly drawn) [Example 12, tert-Butyl (5S,12S)-5-benzyl-12-[(R)-[(3R,4R,5R)-3,4-bis{[tertbutyl(dimethyl)silyl]oxy}-5-(3-(4-methoxybenzyl)-2,4-dioxo-3,4-dihydro-1(2H)-pyrimidinyl)tetrahydro-2-furanyl](hydroxy)methyl]-3,6-dioxo-1-phenyl-2-oxa-4,7,11-triazatridecan-13-oate] gave an MIC [1] of over 128 µg/mL, an MIC [2] of 128 µg/mL (≈ 121 µM) and an MIC [3] of 128 µg/mL (≈ 121 µM). For the same compound, the MIC [4] was over 128 µg/mL, the MIC [5] was 128 µg/mL (≈ 121 µM) and the MIC [6] was 128 µg/mL (≈ 121 µM). It also gave an MIC [7] of over 128 µg/mL, an MIC [8] of over 128 µg/mL and an MIC [9] of over 128 µg/mL. The MIC [10] was 128 µg/mL (≈ 121 µM), the MIC [11] was over 128 µg/mL and the MIC [12] was 128 µg/mL (≈ 121 µM). For the same compound, the MIC [13] was over 128 µg/mL, the MIC [14] was 128 µg/mL (≈ 121 µM) and the MIC [15] was 128 µg/mL (≈ 121 µM). For the same compound, the MIC [16] was over 128 µg/mL, the MIC [17] was over 128 µg/mL and the MIC [18] was 128 µg/mL (≈ 121 µM). For the same compound, the MIC [19] was 128 µg/mL (≈ 121 µM) and the MIC [20] was 128 µg/mL (≈ 121 µM).
